Measurements from ChEMBL document CHEMBL1140104, “Chlorogenic acid derivatives with alkyl chains of different lengths and orientations: potent alpha-glucosidase inhibitors” (J Med Chem, 2008).
pIC50: −log10 of the molar value. Where a name gives a salt, the structure may show the parent alone.

Tests used:
[1] = Inhibition of Bacillus stearothermophilus alpha-glucosidase; design: species or system Geobacillus stearothermophilus
[2] = Inhibition of Saccharomyces cerevisiae alpha-glucosidase
[3] = Stability in artificial gastric juice at 10 mM after 48 hrs; format: physicochemical; conditions: simulated gi fluid, 10000 µM
[4] = Stability in artificial intestinal juice at 10 mM after 12 hrs; format: physicochemical; conditions: simulated gi fluid, 10000 µM

Row | Structure (SMILES) | pIC50 [1] | pIC50 [2] | Stability [3] | Stability [4]
1 | CCCCCCCC[C@@H]1OC(=O)[C@]2(C[C@@H](OC(=O)/C=C/c3ccc(O)c(O)c3)[C@@H]3O[C@H](CCCCCCCC)O[C@@H]3C2)O1 | 5.70 | 6.00 | – | –
2 | CCCCCCCC[C@@H]1O[C@H]2[C@H](OC(=O)/C=C/c3ccc(O)c(O)c3)C[C@]3(C[C@H]2O1)O[C@H](CCCCCCCC)OC3=O | 5.74 | 6.10 | – | –
3 | CCCCCCCCC1(CCCCCCCC)OC(=O)[C@@]2(C[C@@H](O)[C@@H](O)[C@H](OC(=O)/C=C/c3ccc(O)c(O)c3)C2)O1 | 5.29 | 5.52 | – | –
4 | CC1(C)O[C@H]2[C@H](OC(=O)/C=C/c3ccc(O)c(O)c3)C[C@]3(C[C@H]2O1)OC(C)(C)OC3=O | 3.81 | 3.41 | – | –
5 | CCCCCC1(CCCCC)OC(=O)[C@@]2(C[C@@H](O)[C@@H](O)[C@H](OC(=O)/C=C/c3ccc(O)c(O)c3)C2)O1 | 4.85 | 5.44 | – | –
6 | CCCCCCC1(CCCCCC)OC(=O)[C@@]2(C[C@@H](O)[C@@H](O)[C@H](OC(=O)/C=C/c3ccc(O)c(O)c3)C2)O1 | 5.41 | 5.47 | – | –
7 | CCCCCCCC[C@@H]1OC(=O)[C@@]2(C[C@@H](O)[C@@H](O)[C@H](OC(=O)/C=C/c3ccc(O)c(O)c3)C2)O1 | 4.96 | 5.48 | – | –
8 | CC1(C)OC(=O)[C@@]2(C[C@@H](O)[C@@H](O)[C@H](OC(=O)/C=C/c3ccc(O)c(O)c3)C2)O1 | 2.60 | 3.94 | – | –
9 | CCC1(CC)O[C@H]2[C@H](OC(=O)/C=C/c3ccc(O)c(O)c3)C[C@]3(C[C@H]2O1)OC(CC)(CC)OC3=O | 4.35 | 4.58 | – | –
10 | CCCCC1(CCCC)OC(=O)[C@@]2(C[C@@H](O)[C@@H](O)[C@H](OC(=O)/C=C/c3ccc(O)c(O)c3)C2)O1 | 4.84 | 5.47 | – | –
11 | CCCCCCCC[C@H]1OC(=O)[C@@]2(C[C@@H](O)[C@@H](O)[C@H](OC(=O)/C=C/c3ccc(O)c(O)c3)C2)O1 | 4.90 | 5.44 | – | –
12 | CC1(C)OC2Cc3c(O)cc(O)cc3O[C@@H]2c2cc(O)c(O)cc21 (some centres undefined) | 4.53 | 4.73 | – | –
13 | CCCCCCCC1(CCCCCCC)OC(=O)[C@@]2(C[C@@H](O)[C@@H](O)[C@H](OC(=O)/C=C/c3ccc(O)c(O)c3)C2)O1 | 5.44 | 5.37 | – | –
14 | CCCCCCCC[C@H]1O[C@H]2[C@H](OC(=O)/C=C/c3ccc(O)c(O)c3)C[C@]3(C[C@H]2O1)O[C@@H](CCCCCCCC)OC3=O | 6.10 | 6.52 | – | –
15 | CCCCCCC1(CCCCCC)O[C@H]2[C@H](OC(=O)/C=C/c3ccc(O)c(O)c3)C[C@]3(C[C@H]2O1)OC(CCCCCC)(CCCCCC)OC3=O | 6.10 | 6.30 | – | –
16 | CCCCCCCC1(CCCCCCC)O[C@H]2[C@H](OC(=O)/C=C/c3ccc(O)c(O)c3)C[C@]3(C[C@H]2O1)OC(CCCCCCC)(CCCCCCC)OC3=O | 6.05 | 6.40 | – | –
17 | CCCCCCCCC1(CCCCCCCC)O[C@H]2[C@H](OC(=O)/C=C/c3ccc(O)c(O)c3)C[C@]3(C[C@H]2O1)OC(CCCCCCCC)(CCCCCCCC)OC3=O | 6.05 | 6.30 | – | –
18 | CCCCCC1(CCCCC)O[C@H]2[C@H](OC(=O)/C=C/c3ccc(O)c(O)c3)C[C@]3(C[C@H]2O1)OC(CCCCC)(CCCCC)OC3=O | 5.96 | 6.10 | – | –
19 | CCCCC1(CCCC)O[C@H]2[C@H](OC(=O)/C=C/c3ccc(O)c(O)c3)C[C@]3(C[C@H]2O1)OC(CCCC)(CCCC)OC3=O | 6.10 | 6.52 | – | –
20 | CCCCCCCC[C@@H]1O[C@H]2[C@H](OC(=O)/C=C/c3ccc(O)c(O)c3)C[C@]3(C[C@H]2O1)O[C@@H](CCCCCCCC)OC3=O | 6.15 | 6.52 | Stable | Stable
21 | CCCC1(CCC)O[C@H]2[C@H](OC(=O)/C=C/c3ccc(O)c(O)c3)C[C@]3(C[C@H]2O1)OC(CCC)(CCC)OC3=O | 5.26 | 5.48 | – | –
22 | CCCC1(CCC)OC(=O)[C@@]2(C[C@@H](O)[C@@H](O)[C@H](OC(=O)/C=C/c3ccc(O)c(O)c3)C2)O1 | 4.21 | 4.71 | – | –
23 | CCC1(CC)OC(=O)[C@@]2(C[C@@H](O)[C@@H](O)[C@H](OC(=O)/C=C/c3ccc(O)c(O)c3)C2)O1 | 3.89 | 4.15 | – | –
24 | C[C@H]1O[C@H](O[C@H]2[C@H](O)[C@@H](O)[C@@H](O[C@H]3[C@H](O)[C@@H](O)C(O)O[C@@H]3CO)O[C@@H]2CO)[C@H](O)[C@@H](O)[C@@H]1N[C@H]1C=C(CO)[C@@H](O)[C@H](O)[C@H]1O (some centres undefined) [ACARBOSE] | 7.00 | 7.00 | – | –
25 | O=C(/C=C/c1ccc(O)c(O)c1)O[C@@H]1C[C@](O)(C(=O)O)C[C@@H](O)[C@H]1O [CHLOROGENIC ACID] | 2.55 | < 2.55 | – | –
26 | OC[C@H]1NC[C@H](O)[C@@H](O)[C@@H]1O [DUVOGLUSTAT HYDROCHLORIDE] | 5.62 | 5.74 | – | –
